How the values were obtained:
[1] = tested on: Beet Armyworm (Spodoptera exigua, LAPHEG) second instar larva; test: Bioassay on beet armyworm (BAW), 128-well diet tray assay; assay type: in vivo; settings: 50 μg/cm^2 on artificial diet, 25° C., five days
Description: Example A: Bioassays on Beet Armyworm (Spodoptera exigua, LAPHEG) (“BAW”) and Cabbage Looper (Trichoplusia ni, TRIPNI) (“CL”)
Bioassays on BAW were conducted using a 128-well diet tray assay. One second instar BAW larva was placed in each well (8 wells total) of the diet tray that had been previously filled with 1 mL of artificial diet to which 50 μg/cm^2 of the test molecule (dissolved in 50 μL of 90:10 acetone-water mixture) had been applied (to each of eight wells) and then allowed to dry. Trays were covered with a clear self-adhesive cover, vented to allow gas exchange, and held at 25° C., 14:10 light-dark for five days. Percent mortality was recorded for the larvae in each well; activity in the eight wells was then averaged.

[2] = tested on: Yellow Fever Mosquito (Aedes aegypti, AEDSAE) larvae; test: Bioassay on yellow fever mosquito (YFM), 96-well plate larval assay; assay type: in vivo; settings: 4000 ppm (master plate solution), about 1 day-old larvae, 3 days
Description: Example B: Bioassays on Yellow Fever Mosquito (Aedes aegypti, AEDSAE) (“YFM”)
Master plates containing 400 μg of a molecule dissolved in 100 μL of dimethyl sulfoxide (DMSO) (equivalent to a 4000 ppm solution) are used. A master plate of assembled molecules contains 15 μL per well. To this plate, 135 μL of a 90:10 water/acetone mixture is added to each well. A robot (Biomek® NXP Laboratory Automation Workstation) is programmed to dispense 15 μL aspirations from the master plate into an empty 96-well shallow plate (“daughter” plate). There are 6 reps (“daughter” plates) created per master. The created “daughter” plates are then immediately infested with YFM larvae.
The day before plates are to be treated, mosquito eggs are placed in Millipore water containing liver powder to begin hatching (4 g into 400 mL). After the “daughter” plates are created using the robot, they are infested with 220 μL of the liver powder/larval mosquito mixture (about 1 day-old larvae). After plates are infested with mosquito larvae, a non-evaporative lid is used to cover the plate to reduce drying. Plates are held at room temperature for 3 days prior to grading. After 3 days, each well is observed and scored based on mortality.

Row | SMILES | activity against BAW (percent mortality, averaged over eight wells) [1] | activity against YFM (scored based on mortality) [2]
1 | O=C(Nc1cc(NC(=O)[C@H]2[C@H](c3cc(Cl)cc(Cl)c3)C2(Cl)Cl)ccc1Cl)c1ccc(Cl)cc1 (racemic) [F79, trans-rac-4-Chloro-N-(2-chloro-5-(2,2-dichloro-3-(3,5-dichlorophenyl)cyclopropane-1-carboxamido)phenyl)benzamide] | exhibited activity | exhibited activity
2 | Cc1ccc(C(=O)Nc2cc(NC(=O)[C@H]3[C@H](c4cc(Cl)cc(Cl)c4)C3(Cl)Cl)ccc2Cl)cc1 (racemic) [F75, trans-rac-N-(2-Chloro-5-(2,2-dichloro-3-(3,5-dichlorophenyl)cyclopropane-1-carboxamido)phenyl)-4-methylbenzamide] | exhibited activity | exhibited activity
3 | O=C(Nc1cc(NC(=O)[C@H]2[C@H](c3cc(Cl)cc(Cl)c3)C2(Cl)Cl)ccc1Cl)c1ccc(F)c(C(F)(F)F)c1 (racemic) [F83, trans-rac-N-(2-Chloro-5-(2,2-dichloro-3-(3,5-dichlorophenyl)cyclopropane-1-carboxamido)phenyl)-4-fluoro-3-(trifluoromethyl)benzamide] | exhibited activity | exhibited activity
4 | O=C(Nc1cc(NC(=O)[C@H]2[C@H](c3cc(Cl)cc(Cl)c3)C2(Cl)Cl)ccc1Cl)c1ccccc1Cl (racemic) [F78, trans-rac-2-Chloro-N-(2-chloro-5-(2,2-dichloro-3-(3,5-dichlorophenyl)cyclopropane-1-carboxamido)phenyl)benzamide] | exhibited activity | exhibited activity
5 | CCOC(C)C(=O)Nc1cccc(NC(=O)[C@H]2[C@H](c3cc(Cl)cc(Cl)c3)C2(Cl)Cl)c1F (stereo partly drawn) [F18, (1R,3R)-2,2-Dichloro-3-(3,5-dichlorophenyl)-N-(3-(2-ethoxypropanamido)-2-fluorophenyl)cyclopropane-1-carboxamide] | exhibited activity | exhibited activity
6 | N#Cc1ccc(C(=O)Nc2cc(NC(=O)[C@H]3[C@H](c4cc(Cl)cc(Cl)c4)C3(Cl)Cl)ccc2Cl)cc1 (racemic) [F70, trans-rac-N-(2-Chloro-5-(2,2-dichloro-3-(3,5-dichlorophenyl)cyclopropane-1-carboxamido)phenyl)-4-cyanobenzamide] | exhibited activity | exhibited activity
7 | O=C(Nc1cc(NC(=O)[C@H]2[C@H](c3cc(Cl)cc(Cl)c3)C2(Cl)Cl)ccc1F)c1c(F)cccc1F (racemic) [F61, trans-rac-N-(5-(2,2-Dichloro-3-(3,5-dichlorophenyl)cyclopropane-1-carboxamido)-2-fluorophenyl)-2,6-difluorobenzamide] | exhibited activity | exhibited activity
8 | COc1ccc(C(=O)Nc2cc(NC(=O)[C@H]3[C@H](c4cc(Cl)cc(Cl)c4)C3(Cl)Cl)ccc2Cl)cc1 (racemic) [F85, trans-rac-N-(2-Chloro-5-(2,2-dichloro-3-(3,5-dichlorophenyl)cyclopropane-1-carboxamido)phenyl)-4-methoxybenzamide] | exhibited activity | exhibited activity
9 | O=C(Nc1ccc(Cl)c(NC(=O)C(F)(F)F)c1)[C@H]1[C@H](c2cc(Cl)cc(Cl)c2)C1(Cl)Cl (racemic) [F53, trans-rac-2,2-dichloro-N-(4-chloro-3-(2,2,2-trifluoroacetamido)phenyl)-3-(3,5-dichlorophenyl)cyclopropane-1-carboxamide] | exhibited activity | exhibited activity
10 | CCC(F)(F)C(=O)Nc1cc(NC(=O)[C@H]2[C@H](c3cc(Cl)cc(Cl)c3)C2(Cl)Cl)ccc1Cl (racemic) [F58, trans-rac-2,2-Dichloro-N-(4-chloro-3-(2,2-difluorobutanamido)phenyl)-3-(3,5-dichlorophenyl)cyclopropane-1-carboxamide] | exhibited activity | exhibited activity
11 | O=C(CC1CC1)Nc1cccc(NC(=O)[C@H]2[C@H](c3cc(Cl)cc(Cl)c3)C2(Cl)Cl)c1F [F21, (1R,3R)-2,2-Dichloro-N-(3-(2-cyclopropylacetamido)-2-fluorophenyl)-3-(3,5-dichlorophenyl)cyclopropane-1-carboxamide] |  | exhibited activity
12 | O=C(Nc1cc(NC(=O)[C@H]2[C@H](c3cc(Cl)cc(Cl)c3)C2(Cl)Cl)ccc1Cl)c1ccc(F)c(F)c1 (racemic) [F67, trans-rac-N-(2-Chloro-5-(2,2-dichloro-3-(3,5-dichlorophenyl)cyclopropane-1-carboxamido)phenyl)-3,4-difluorobenzamide] | exhibited activity | exhibited activity
13 | CC(=O)Nc1ccc(C(=O)Nc2cc(NC(=O)[C@H]3[C@H](c4ccc(F)c(C(F)(F)F)c4)C3(Cl)Cl)ccc2Cl)c(C)c1F (racemic) [F113, trans-rac-4-Acetamido-N-(2-chloro-5-(2,2-dichloro-3-(4-fluoro-3-(trifluoromethyl)phenyl)cyclopropane-1-carboxamido)phenyl)-3-fluoro-2-methylbenzamide] | exhibited activity | exhibited activity
14 | O=C(Nc1cc(NC(=O)[C@H]2[C@H](c3cc(Cl)cc(Cl)c3)C2(Cl)Cl)ccc1Cl)c1cc(Cl)cc(Cl)c1 (racemic) [F80, trans-rac-3,5-Dichloro-N-(2-chloro-5-(2,2-dichloro-3-(3,5-dichlorophenyl)cyclopropane-1-carboxamido)phenyl)benzamide] | exhibited activity | exhibited activity
15 | CC(C#N)C(=O)Nc1cccc(NC(=O)[C@H]2[C@H](c3cc(Cl)cc(Cl)c3)C2(Cl)Cl)c1F (stereo partly drawn) [F22, (1R,3R)-2,2-Dichloro-N-(3-(2-cyanopropanamido)-2-fluorophenyl)-3-(3,5-dichlorophenyl)cyclopropane-1-carboxamide] | exhibited activity | exhibited activity
16 | CC(CC(=O)Nc1cccc(NC(=O)[C@H]2[C@H](c3cc(Cl)cc(Cl)c3)C2(Cl)Cl)c1F)C(F)(F)F (stereo partly drawn) [F15, (1R,3R)-2,2-Dichloro-3-(3,5-dichlorophenyl)-N-(2-fluoro-3-(4,4,4-trifluoro-3-methylbutanamido)phenyl)cyclopropane-1-carboxamide] | exhibited activity | exhibited activity
17 | O=C(Nc1cc(NC(=O)[C@H]2[C@H](c3cc(Cl)cc(Cl)c3)C2(Cl)Cl)ccc1Cl)c1ccccn1 (racemic) [F28, trans-rac-N-(2-chloro-5-(2,2-dichloro-3-(3,5-dichlorophenyl)cyclopropane-1-carboxamido)phenyl)picolinamide] |  | exhibited activity
18 | CCCC(=O)Nc1cc(NC(=O)[C@H]2[C@H](c3cc(Cl)cc(Cl)c3)C2(Cl)Cl)ccc1Cl (racemic) [F45, trans-rac-N-(3-Butyramido-4-chlorophenyl)-2,2-dichloro-3-(3,5-dichlorophenyl)cyclopropane-1-carboxamide] |  | exhibited activity
19 | CC(Oc1ccccc1)C(=O)Nc1cc(NC(=O)C2C(c3cc(Cl)cc(Cl)c3)C2(Cl)Cl)ccc1Cl (racemic) [F41, trans-rac-2,2-Dichloro-N-(4-chloro-3-(2-phenoxypropanamido)phenyl)-3-(3,5-dichlorophenyl)cyclopropane-1-carboxamide] | exhibited activity | 
20 | Cc1cc(C#N)ccc1C(=O)Nc1cc(NC(=O)[C@H]2[C@H](c3cc(Cl)cc(Cl)c3)C2(Cl)Cl)ccc1Cl (racemic) [F27, trans-rac-N-(2-Chloro-5-(2,2-dichloro-3-(3,5-dichlorophenyl)cyclopropane-1-carboxamido)phenyl)-4-cyano-2-methylbenzamide] | exhibited activity | 
